Measurements from patent US6218380A, “Pharmaceutical compositions” (SmithKline Beecham p.l.c., priority 1991, dated 2001).
Where a name gives a salt, the structure may show the parent alone. Values belong to the compound of their own block, whether it stands above or below them.

Experiments:
[1] = Hydrolysis of ester to clavulanic acid in pH 7 buffer; assay type: physicochemical; settings: water buffered to pH7
Experimental: The reaction was followed by paper chromatography (bioautographic system). Using the butanol/ethanol/water system to follow the reaction over a period of 2 hours the zone of the methyl ester of Rf 0.79 decreased in size as the zone of clavulanic acid at Rf 0.12 increased.

[2] = tested on: strains of Staphylococcus aureus; assay: Growth inhibition (properties of clavulanic acid); assay type: cell-based
[3] = tested on: β-lactamase producing strains of Escherichia coli, Klebsiella aerogenes and Staphylococcus aureus; assay: Synergism with ampicillin (properties of clavulanic acid); assay type: cell-based
[4] = tested on: β-lactamase producing strains of Proteus mirabilis and Staphylococcus aureus; assay: Synergism with cephaloridine (properties of clavulanic acid); assay type: cell-based
Klebsiella aerogenes A = assay: Antibacterial synergism, microtitre MIC (Example 42); assay type: cell-based; settings: method of Example 42; unit not given
[5] = tested on: Klebsiella aerogenes E 70; assay: as above; assay type: cell-based; settings: method of Example 42; unit not given
Klebsiella aerogenes 62 = assay: as above; assay type: cell-based; settings: method of Example 42; unit not given
[6] = tested on: Staphylococcus aureus (Russell); assay: M.I.C. with clavulanic acid methyl ester (Example 32); assay type: cell-based
Proteus mirabilis C889 = assay: as above; assay type: cell-based
[7] = tested on: strains of Klebsiella aerogenes A; assay: Growth inhibition, penicillins with synergist (description); assay type: cell-based
Staphylococcus aureus = assay: Antibacterial synergism, microtitre MIC (Example 42); assay type: cell-based; settings: method of Example 42
[8] = Blood and tissue levels in female mice; assay type: in vivo; settings: oral administration of 100 mg/kg of the sodium salt

- Hydrolysis to clavulanic acid [1]: slowly hydrolyse to clavulanic acid
SMILES: COC(=O)[C@H]1/C(=C/CO)O[C@@H]2CC(=O)N21 [clavulanic acid methyl ester]

SMILES: O=C(O)[C@H]1/C(=C/CO)O[C@@H]2CC(=O)N21 [clavulanic acid, Z-(2R,5R)-3-(β-hydroxyethylidene)-7-oxo-4-oxa-1-azabicyclo[3,2,0]heptane-2-carboxylic acid]
- Inhibition of growth of strains of Staphylococcus aureus [2]: able to inhibit the growth
- Synergism of the antibacterial effect of ampicillin [3]: able to synergise the antibacterial effect of ampicillin
- Synergism of the antibacterial effect of cephaloridine [4]: able to synergise the antibacterial effect of cephaloridine

- MIC of Ampicillin + 5 μg/ml of Benzyl Ester of clavulanic acid (Klebsiella aerogenes A): 1.9
- MIC of Ampicillin + 5 μg/ml of Methyl Ester of clavulanic acid (Klebsiella aerogenes A): 1.9
- MIC of Ampicillin + 5 μg/ml of Benzyl Ester of clavulanic acid [5]: 3.9
- MIC of Ampicillin + 5 μg/ml of Methyl Ester of clavulanic acid [5]: 3.9
- MIC of Ampicillin + 5 μg/ml of Benzyl Ester of clavulanic acid (Klebsiella aerogenes 62): 3.9
- MIC of Ampicillin + 5 μg/ml of Methyl Ester of clavulanic acid (Klebsiella aerogenes 62): 3.9
SMILES: CC1(C)S[C@@H]2[C@H](NC(=O)[C@H](N)c3ccccc3)C(=O)N2[C@H]1C(=O)O [Ampicillin, ampicillin]
- M.I.C. of antibiotic in the presence of 1.0 μg/ml. clavulanic acid methyl ester [6]: < 0.4 µg/mL
- M.I.C. for ampicillin in the presence of 5 μg/ml. clavulanic acid methyl ester (Proteus mirabilis C889): 31 µg/mL

SMILES: CC1(C)S[C@@H]2[C@H](NC(=O)Cc3ccccc3)C(=O)N2[C@H]1C(=O)O [Benzylpenicillin, benzylpenicillin]
- Concentration of penicillin that inhibits growth when 5 μg/ml. of clavulanic acid is also present [7]: less than 12.5 μg/ml

SMILES: O=C(Cc1cccs1)N[C@@H]1C(=O)N2C(C(=O)[O-])=C(C[n+]3ccccc3)CS[C@H]12 [Cephaloridine, cephaloridine]
- Minimum Inhibitory Concentrations, cephaloridine in presence of 5 μg/ml clavulanic acid sodium salt (Staphylococcus aureus): 3.7 µg/mL

SMILES: O=C(O)[C@H]1/C(=C/CO)O[C@@H]2CC(=O)N21 [clavulanic acid sodium salt, 3-(β-hydroxyethylidine)-7-oxo-4-oxa-1-azabicyclo[3,2,0]heptane-2-carboxylic acid sodium salt]
- Levels of clavulanic acid [8]: useful levels
